# Measured values reported in patent US4051237A, “Glycopeptide antibiotics Bu-2231 A and B and process for producing same” (priority 1975, dated 1977).
# Tests used:
# Assay type in all cases: cell-based
# [1] = tested on: E. coli Juhl A15119; test: MIC by two-fold agar dilution; conditions: Mueller-Hinton agar, unit assumed
# [2] = tested on: E. coli A20683; test: MIC by two-fold agar dilution; conditions: Mueller-Hinton agar, unit assumed
# [3] = tested on: E. coli A20732; test: MIC by two-fold agar dilution; conditions: Mueller-Hinton agar, unit assumed
# [4] = tested on: E. cloacae A21006; test: MIC by two-fold agar dilution; conditions: Mueller-Hinton agar, unit assumed
# [5] = tested on: P. vulgaris A9436; test: MIC by two-fold agar dilution; conditions: Mueller-Hinton agar, unit assumed
# [6] = tested on: P morganii A9553; test: MIC by two-fold agar dilution; conditions: Mueller-Hinton agar, unit assumed
# [7] = tested on: P. rettgeri A15167; test: MIC by two-fold agar dilution; conditions: Mueller-Hinton agar, unit assumed
# [8] = tested on: S. marcescens A20019; test: MIC by two-fold agar dilution; conditions: Mueller-Hinton agar, unit assumed
# [9] = tested on: S. marcescens A20460; test: MIC by two-fold agar dilution; conditions: Mueller-Hinton agar, unit assumed
# [10] = tested on: S. marcescens A20333; test: MIC by two-fold agar dilution; conditions: Mueller-Hinton agar, unit assumed
# [11] = tested on: S. marcescens A21235; test: MIC by two-fold agar dilution; conditions: Mueller-Hinton agar, unit assumed
# [12] = tested on: P. aeruginosa A 9923; test: MIC by two-fold agar dilution; conditions: Mueller-Hinton agar, unit assumed
# [13] = tested on: P. aeruginosa A9930; test: MIC by two-fold agar dilution; conditions: Mueller-Hinton agar, unit assumed
# [14] = tested on: P. aeruginosa H9, D113; test: MIC by two-fold agar dilution; conditions: Mueller-Hinton agar, unit assumed
# [15] = tested on: P. aeruginosa A20741; test: MIC by two-fold agar dilution; conditions: Mueller-Hinton agar, unit assumed
# [16] = tested on: S. aureus 209P; test: MIC by two-fold agar dilution; conditions: Mueller-Hinton agar, unit assumed
# [17] = tested on: S. aureus Smith A9537; test: MIC by two-fold agar dilution; conditions: Mueller-Hinton agar, unit assumed
# [18] = tested on: S. aureus #193; test: MIC by two-fold agar dilution; conditions: Mueller-Hinton agar, unit assumed
# [19] = tested on: S. aureus 209P, R4; test: MIC by two-fold agar dilution; conditions: Mueller-Hinton agar, unit assumed
# Method: The minimum inhibitory concentrations (MIC) of Bu-2231 A and B were determined against a wide variety of bacteria and fungi by the two-fold agar dilution method. Mueller-Hinton agar medium was used for the determination of bacterial MIC's (gram-positive and gram-negative), Medium #1001 [Glycerol (3%). Na-glutamate (0.3%), peptone (0.2%), Na2 HPO4 (0.31%), KH2 PO4 (0.1%), ammonium citrate (0.005%), MgSO4.7H2 O (0.001%), agar (1.5%)] for acid-fast bacteria and sabouraud agar for fungi. The results are shown in Tables 9 and 10 comparatively with bleomycin and phleomycin. The antibacterial and antifungal activities of Bu-2231 A and B are much higher than those of the reference antibiotics.
# [20] = tested on: S. aureus A20239; test: MIC by two-fold agar dilution; conditions: Mueller-Hinton agar, unit assumed
# [21] = tested on: S. aureus BX-1633,A9606; test: MIC by two-fold agar dilution; conditions: Mueller-Hinton agar, unit assumed
# [22] = tested on: S. lutea PCI-1001; test: MIC by two-fold agar dilution; conditions: Mueller-Hinton agar, unit assumed
# [23] = tested on: B. sphaericus #122; test: MIC by two-fold agar dilution; conditions: Mueller-Hinton agar, unit assumed
# [24] = tested on: B. cereus ATCC 10702A; test: MIC by two-fold agar dilution; conditions: Mueller-Hinton agar, unit assumed
# [25] = tested on: B. anthracis 115; conditions: Mueller-Hinton agar, unit assumed
# [26] = tested on: Mycobacterium 607, D47; test: MIC by two-fold agar dilution; conditions: Medium #1001, unit assumed
# [27] = tested on: Mycobacterium phlei, D88; test: MIC by two-fold agar dilution; conditions: Medium #1001, unit assumed
# [28] = tested on: Mycobacterium ranae, ATCC110; test: MIC by two-fold agar dilution; conditions: Medium #1001, unit assumed
# [29] = tested on: C. albicans IAM 4888; test: MIC by two-fold agar dilution; conditions: Ca-1 C. albicans IAM 4888; sabouraud agar; unit assumed
# [30] = tested on: C. albicans Nystatin-R; test: MIC by two-fold agar dilution; conditions: Ca-2 C. albicans Nystatin-R; sabouraud agar; unit assumed
# [31] = tested on: C. tropicalis IAM 4157; test: MIC by two-fold agar dilution; conditions: Ct-1 C. tropicalis IAM 4157; sabouraud agar; unit assumed
# [32] = tested on: S. cerevisiae IAM 4009; test: MIC by two-fold agar dilution; conditions: Sc-2 S. cerevisiae IAM 4009; sabouraud agar; unit assumed
# [33] = tested on: A. niger var Tieghem; test: MIC by two-fold agar dilution; conditions: An-1 A. niger var Tieghem; sabouraud agar; unit assumed
# [34] = tested on: A. fumigatus IAM 2530; test: MIC by two-fold agar dilution; conditions: Af-1 A. fumigatus IAM 2530; sabouraud agar; unit assumed
# [35] = tested on: Sporotrichum sp.; test: MIC by two-fold agar dilution; conditions: Sy-1 Sporotrichum sp.; sabouraud agar; unit assumed
# [36] = tested on: Verticillium sp.; test: MIC by two-fold agar dilution; conditions: Vx-1 Verticillium sp.; sabouraud agar; unit assumed
# [37] = tested on: F. moniliforme NRRL A2284; test: MIC by two-fold agar dilution; conditions: Fm-1 F. moniliforme NRRL A2284; sabouraud agar; unit assumed
# [38] = tested on: C. lunata ATCC 13432; test: MIC by two-fold agar dilution; conditions: Cl-1 C. lunata ATCC 13432; sabouraud agar; unit assumed
# [39] = tested on: P. citrinum IAM 7008; test: MIC by two-fold agar dilution; conditions: Pt-1 P. citrinum IAM 7008; sabouraud agar; unit assumed
# [40] = tested on: T. mentagrophytes D-155; test: MIC by two-fold agar dilution; conditions: Tm-1 T. mentagrophytes D-155; sabouraud agar; unit assumed
# [41] = tested on: T. rubrum D-55; test: MIC by two-fold agar dilution; conditions: Tr-1 T. rubrum D-55; sabouraud agar; unit assumed
# [42] = tested on: M. canis D-51; test: MIC by two-fold agar dilution; conditions: Mc-1 M. canis D-51; sabouraud agar; unit assumed
compound,measurement,setting,value
Cc1c(N)nc([C@H](CC(N)=O)NC[C@H](N)C(N)=O)nc1C(=O)N[C@H](C(=O)N[C@H](C)[C@@H](O)CC(=O)N[C@H](C(=O)NC(O[C@@H]1O[C@@H](C)[C@@H](N)[C@@H](O)[C@H]1O)C(O)c1nc(-c2nc(C(=O)NCCCC(N)CC(=O)NCCCNCCCCN)cs2)cs1)[C@@H](C)O)[C@H](O[C@@H]1O[C@@H](CO)[C@@H](O)[C@H](O)[C@@H]1O[C@H]1O[C@H](CO)[C@@H](O)[C@H](OC(N)=O)[C@@H]1O)c1c[nH]cn1 (some centres unmarked) [Bu-2231 A Cu-free],MIC,[1],0.1 µg/mL
same,MIC,[2],6.3 µg/mL
same,MIC,[3],0.05 µg/mL
same,MIC,[4],1.6 µg/mL
same,MIC,[5],0.2 µg/mL
same,MIC,[6],0.4 µg/mL
same,MIC,[7],0.4 µg/mL
same,MIC,[8],0.4 µg/mL
same,MIC,[9],0.4 µg/mL
same,MIC,[10],0.2 µg/mL
same,MIC,[11],0.2 µg/mL
same,MIC,[12],50 µg/mL
same,MIC,[13],0.4 µg/mL
same,MIC,[14],> 100 µg/mL
same,MIC,[15],0.2 µg/mL
same,MIC,[16],0.1 µg/mL
same,MIC,[17],0.1 µg/mL
same,MIC,[18],0.1 µg/mL
same,MIC,[19],0.4 µg/mL
same,MIC,[20],0.2 µg/mL
same,MIC,[21],0.2 µg/mL
same,MIC,[22],0.2 µg/mL
same,MIC,[23],< 0.0063 µg/mL
same,MIC,[24],0.2 µg/mL
same,MIC,[25],0.05 µg/mL
same,MIC,[26],0.1 µg/mL
same,MIC,[27],0.05 µg/mL
same,MIC,[28],0.1 µg/mL
same,MIC,[29],0.8 µg/mL
same,MIC,[30],0.8 µg/mL
same,MIC,[31],0.8 µg/mL
same,MIC,[32],0.4 µg/mL
same,MIC,[33],0.2 µg/mL
same,MIC,[34],0.8 µg/mL
same,MIC,[35],3.1 µg/mL
same,MIC,[36],3.1 µg/mL
same,MIC,[37],0.8 µg/mL
same,MIC,[38],0.8 µg/mL
same,MIC,[39],1.6 µg/mL
same,MIC,[40],12.5 µg/mL
same,MIC,[41],3.1 µg/mL
same,MIC,[42],3.1 µg/mL
Bleomycin [reference compound],MIC,[1],1.6 µg/mL
same,MIC,[2],> 100 µg/mL
same,MIC,[3],1.6 µg/mL
same,MIC,[4],> 100 µg/mL
same,MIC,[5],6.3 µg/mL
same,MIC,[6],> 100 µg/mL
same,MIC,[7],> 100 µg/mL
same,MIC,[8],> 100 µg/mL
same,MIC,[9],> 100 µg/mL
same,MIC,[10],> 100 µg/mL
same,MIC,[11],100 µg/mL
same,MIC,[12],> 100 µg/mL
same,MIC,[13],> 100 µg/mL
same,MIC,[14],> 100 µg/mL
same,MIC,[15],12.5 µg/mL
same,MIC,[16],6.3 µg/mL
same,MIC,[17],3.1 µg/mL
same,MIC,[18],12.5 µg/mL
same,MIC,[20],12.5 µg/mL
same,MIC,[21],6.3 µg/mL
same,MIC,[22],100 µg/mL
same,MIC,[23],6.3 µg/mL
same,MIC,[24],1.6 µg/mL
same,MIC,[25],12.5 µg/mL
same,MIC,[26],0.4 µg/mL
same,MIC,[27],0.2 µg/mL
same,MIC,[28],0.8 µg/mL
same,MIC,[29],12.5 µg/mL
same,MIC,[30],12.5 µg/mL
same,MIC,[31],12.5 µg/mL
same,MIC,[32],0.4 µg/mL
same,MIC,[33],0.4 µg/mL
same,MIC,[34],0.8 µg/mL
same,MIC,[35],> 100 µg/mL
same,MIC,[36],6.3 µg/mL
same,MIC,[37],> 100 µg/mL
same,MIC,[38],0.1 µg/mL
same,MIC,[39],> 100 µg/mL
same,MIC,[40],> 100 µg/mL
same,MIC,[41],> 100 µg/mL
same,MIC,[42],> 100 µg/mL
